Source: patent US6806265B2, “Non-nucleoside reverse transcriptase inhibitors” (priority 2002, dated 2004)
Where two headings read alike, the source gives them in different places.

Tests used:
[1] = biological target: T1, HIV-1 RT double mutant K103N/Y181C (Human immunodeficiency virus type 1 group M subtype B, UniProt P03366, K702N/Y780C); assay: biochemical
T1 construct: HIV-1 wild type reverse transcriptase as well as the clinically significant double mutant K103N/Y181C
Method: (§1) Utilizing the Reverse Transcriptase (RT) Assay described below, compounds were tested for their ability to inhibit the RNA-dependent DNA polymerase activity of HIV-1 RT. Certain specific compounds described in the Examples and in Tables 1-4, were so tested. The results of this testing appear in Table 5 as ranges of IC50 (nM) and EC50 (nM).
(§2) Reverse Transcriptase (RT) Assays

[2] = biological target: T2, HIV-1 wild type reverse transcriptase (Human immunodeficiency virus type 1 group M subtype B, UniProt P03366); assay: biochemical; details: wild type RT; read-out: IC50 WT RT
T2 construct: HIV-1 wild type reverse transcriptase
Method: as §1, §2

[3] = tested on: HIV-1 double mutant K103N/Y181C; assay: microbe, parasite or virus in culture; type: cell-based
[4] = tested on: HIV-1 wild type; assay: microbe, parasite or virus in culture; type: cell-based
[5] = RT double mutant K103N/Y181C, read-out: IC50 K103N/Y181C
[6] = double mutant K103N/Y181C, read-out: EC50 K103N/Y181C
[7] = wild type, read-out: EC50 WT RT
[8] = Human immunodeficiency virus 1, read-out: EC50 K103N/Y181C (nM)
[9] = Human immunodeficiency virus 1, wild type, read-out: EC50 WT RT
[10] = Human immunodeficiency virus 1, read-out: EC50 WT RT (nM)

| Structure (SMILES) | IC50 [1, 5] [nM] | IC50 [2] [nM] | EC50 [3, 6] [nM] | EC50 [4, 7] [nM] | IC50 [1] [nM] | EC50 [3, 8] [nM] | EC50 [4, 9] [nM] | EC50 [4, 10] [nM] |
| --- | --- | --- | --- | --- | --- | --- | --- | --- |
| CCN1c2ncc(CCOc3ccc(C(=O)Nc4ccc(C(=O)O)cc4)cc3C)cc2C(=O)Nc2c(C)ccnc21 [Entry 3017] | < 50 | < 50 | > 50 | 10 to 50 |  |  |  |  |
| CCN1c2ncc(CCOc3ccc(NC(=O)CC(C)(C)C(=O)O)cc3C)cc2C(=O)N(C)c2cccnc21 [Entry 4008] |  | < 50 |  |  | > 100 | 10 to 50 | < 10 |  |
| CCN1c2ncc(CCOc3ccc(C(=O)Nc4cc[n+]([O-])cc4)cc3C)cc2C(=O)N(C)c2cccnc21 [Entry 3004, 4-[2-(11-Ethyl-6,11-dihydro-5-methyl-6-oxo-5H-dipyrido[3,2-b:2′,3′-e][1,4]diazepin-8-yl)ethoxy]-3-methyl-N-(1-oxido-4-pyridinyl)benzamide] |  | < 50 |  |  | < 50 | < 10 | < 10 |  |
| CCN1c2ncc(CCOc3ccc(Nc4cccc(CC(=O)O)c4)cc3C)cc2C(=O)N(C)c2cccnc21 [Entry 3024] |  | < 50 |  |  | < 50 | < 10 |  | < 10 |
| CCN1c2ncc(CCOc3ccc(C(=O)c4ccc(C(=O)O)cc4)cc3C)cc2C(=O)N(C)c2cccnc21 [Entry 3027] |  | < 50 |  |  | 50 to 100 | 10 to 50 |  | < 10 |
| CCN1c2ncc(CCOc3ccc(C(=O)NCC4(C(=O)O)CCCC4)cc3C)cc2C(=O)N(C)c2cccnc21 [Entry 4018] |  | < 50 |  |  | > 100 | 10 to 50 | < 10 |  |
| CCN1c2ncc(CCOc3ccc(-c4ccncc4)cc3)cc2C(=O)N(C)c2cccnc21 [Entry 1090, 11-Ethyl-5,11-dihydro-5-methyl-8-{2-[4-(4-pyridinyl)phenoxy]ethyl}-6H-dipyrido[3,2-b:2′,3′-e][1,4]diazepin-6-one] |  | < 50 |  |  | 50 to 100 | 10 to 50 | < 10 |  |
| CCN1c2ncc(CCOc3ccc(Nc4ccc(C(=O)O)cc4)cc3C)cc2C(=O)N(C)c2cccnc21 [Entry 3022, 4-{{4-[2-(11-Ethyl-6,11-dihydro-5-methyl-6-oxo-5H-dipyrido[3,2-b:2′,3′-e][1,4]diazepin-8-yl)ethoxy]-3-methylphenyl}amino}benzoic acid] |  | < 50 |  |  | < 50 | 10 to 50 |  | < 10 |
| CCN1c2ncc(CCOc3ccc(NC(=O)c4ccc(C(=O)O)cc4)cc3C)cc2C(=O)N(C)c2cccnc21 [Entry 3032] |  | < 50 |  |  | < 50 | > 50 |  | 10 to 50 |
| CCN1c2ncc(CCOc3ccc(-c4ccc(CC(=O)O)cc4)cc3)cc2C(=O)N(C)c2cccnc21 [Entry 1007] | 50 to 100 | < 50 | > 50 | 10 to 50 |  |  |  |  |
| CCN1c2ncc(CCOc3ccc(-c4cc(C(=O)O)on4)cc3C)cc2C(=O)N(C)c2cccnc21 [Entry 1041, 3-{4-[2-(11-Ethyl-6,11-dihydro-5-methyl-6-oxo-5H-dipyrido[3,2-b:2′,3′-e][1,4]diazepin-8-yl)ethoxy]-3-methylphenyl}-5-isoxazolecarboxylic acid] |  | < 50 |  |  | < 50 | > 50 | > 50 |  |
| CCN1c2ncc(CCOc3ccc(-c4ccc(C(=O)O)cc4)c(Cl)c3)cc2C(=O)N(C)c2cccnc21 [Entry 1006] | 50 to 100 | < 50 | > 50 | 10 to 50 |  |  |  |  |
| CCN1c2ncc(CCOc3ccc(C(=O)NC(C)(C)CC(=O)O)cc3C)cc2C(=O)N(C)c2cccnc21 [Entry 4017] |  | < 50 |  |  | > 100 | > 50 | < 10 |  |
| CCN1c2ncc(CCOc3ccc(-c4cccc(C(=O)O)c4)cc3)cc2C(=O)N(C)c2cccnc21 [Entry 1012] | > 100 | < 50 | 10 to 50 | < 10 |  |  |  |  |
| CCN1c2ncc(CCOc3ccc(NC(=O)C4CC4C(=O)O)cc3C)cc2C(=O)N(C)c2cccnc21 (stereo not shown) [Entry 4009] |  | < 50 |  |  | > 100 | > 50 | < 10 |  |
| CCN1c2ncc(CCOc3ccc(-c4cccc(CC(=O)O)c4)cc3C)cc2C(=O)N(C)c2cccnc21 [Entry 1015] | < 50 | < 50 | < 10 | < 10 |  |  |  |  |

| Structure (SMILES) | IC50 [1, 5] [nM] | IC50 [2] [nM] | EC50 [3, 6] [nM] | EC50 [4, 7] [nM] | IC50 [1] [nM] | EC50 [3, 8] [nM] | EC50 [4, 9] [nM] | EC50 [4, 10] [nM] |
| --- | --- | --- | --- | --- | --- | --- | --- | --- |
| CCN1c2ncc(CCOc3ccc(C(=O)NNC)cc3C)cc2C(=O)N(C)c2cccnc21 [Entry 4016] |  | < 50 |  |  | < 50 | < 10 | < 10 |  |
| CCN1c2ncc(CCOc3ccc(-c4ccc(N)c(C(=O)O)c4)cc3C)cc2C(=O)N(C)c2cccnc21 [Entry 1034, 4-Amino-4′-[2-(11-ethyl-6,11-dihydro-5-methyl-6-oxo-5H-dipyrido[3,2-b:2′,3′-e][1,4]diazepin-8-yl)ethoxy]-3′-methyl-[1,1′-biphenyl]-3-carboxylic acid] |  | < 50 |  |  | < 50 | < 10 |  | < 10 |
| CCN1c2ncc(CCOc3ccc(C(=O)Nc4cccc[n+]4[O-])cc3C)cc2C(=O)Nc2c(C)ccnc21 [Entry 3019] | 50 to 100 | < 50 | < 10 | < 10 |  |  |  |  |
| CCN1c2ncc(CCOc3ccc(C(=O)Nc4nc(CC(=O)O)cs4)cc3C)cc2C(=O)N(C)c2cccnc21 [Entry 3007] |  | < 50 |  |  | < 50 | > 50 | 10 to 50 |  |
| CCN1c2ncc(CCOc3ccc(NC(=O)CCC(=O)O)cc3C)cc2C(=O)N(C)c2cccnc21 [Entry 4006] |  | < 50 |  |  | 50 to 100 | > 50 | 10 to 50 |  |
| CCN1c2ncc(CCOc3ccc(C(=O)Nc4ccc(C(=O)O)cc4)cc3C)cc2C(=O)N(C)c2cccnc21 [Entry 3001, 4-{{4-[2-(11-Ethyl-6,11-dihydro-5-methyl-6-oxo-5H-dipyrido[3,2-b:2′,3′-e][1,4]diazepin-8-yl)ethoxy]-3-methylbenzoyl}amino}benzoic acid] |  | < 50 |  |  | < 50 | 10 to 50 |  | < 10 |
| CCN1c2ncc(CCOc3ccc(-c4cccc(C(=O)O)c4)cc3C)cc2C(=O)N(C)c2cccnc21 [Entry 1013, 4′-[2-(11-Ethyl-6,11-dihydro-5-methyl-6-oxo-5H-dipyrido[3,2-b:2′,3′-e][1,4]diazepin-8-yl)ethoxy]-3′-methyl-[1,1′-biphenyl]-3-carboxylic acid] |  | < 50 |  |  | < 50 | 10 to 50 |  | < 10 |
| CCN1c2ncc(CCOc3ccc(C(=O)NN)cc3C)cc2C(=O)N(C)c2cccnc21 [Entry 4011, 4-[2-(11-Ethyl-6,11-dihydro-5-methyl-6-oxo-5H-dipyrido[3,2-b:2′,3′-e][1,4]diazepin-8-yl)ethoxy]-3-methylbenzoic acid hydrazide] |  | < 50 |  |  | < 50 | < 10 | < 10 |  |
| CCN1c2ncc(CCOc3ccc(-c4ccc(C(=O)O)o4)cc3C)cc2C(=O)N(C)c2cccnc21 [Entry 1046, 5-{4-[2-(11-Ethyl-6,11-dihydro-5-methyl-6-oxo-5H-dipyrido[3,2-b:2′,3′-e][1,4]diazepin-8-yl)ethoxy]-3-methylphenyl}-2-furanecarboxylic acid] |  | < 50 |  |  | > 100 | > 50 | < 10 |  |
| CCN1c2ncc(CCOc3ccc(S(=O)(=O)NCC(=O)O)cc3C)cc2C(=O)N(C)c2cccnc21 [Entry 4020] |  | < 50 |  |  | < 50 | > 50 | > 50 |  |
| CCN1c2ncc(CCOc3ccc(NC(=O)c4ccccc4C(=O)O)cc3C)cc2C(=O)N(C)c2cccnc21 [Entry 3033] |  | < 50 |  |  | > 100 | 10 to 50 |  | < 10 |
| CCN1c2ncc(CCOc3ccc(C(=O)NS(C)(=O)=O)cc3C)cc2C(=O)N(C)c2cccnc21 [Entry 4013, 4-[2-(11-Ethyl-6,11-dihydro-5-methyl-6-oxo-5H-dipyrido[3,2-b:2′,3′-e][1,4]diazepin-8-yl)ethoxy]-3-methyl-N-(methylsulfonyl)benzamide] |  | < 50 |  |  | > 100 | > 50 | 10 to 50 |  |
| CCN1c2ncc(CCOc3ccc(-c4cocn4)cc3C)cc2C(=O)N(C)c2cccnc21 [Entry 1099, 11-Ethyl-5,11-dihydro-5-methyl-8-{2-[2-methyl-4-(4-oxazolyl)phenoxy]ethyl}-6H-dipyrido[3,2-b:2′,3′-e][1,4]diazepin-6-one] |  | < 50 |  |  | < 50 | < 10 | < 10 |  |
| CCN1c2ncc(CCOc3ccc(-c4cn(C)cn4)cc3C)cc2C(=O)N(C)c2cccnc21 [Entry 1095, 11-Ethyl-5,11-dihydro-5-methyl-8-{2-[2-methyl-4-(1-methyl-1H-imidazol-4-yl)phenoxy]ethyl}-6H-dipyrido[3,2-b:2′,3′-e][1,4]diazepin-6-one] |  | < 50 |  |  | < 50 | < 10 | < 10 |  |
| CCN1c2ncc(CCOc3ccc(C(=O)Nc4ccc(CC(=O)O)cc4)cc3C)cc2C(=O)N(C)c2cccnc21 [Entry 3005] |  | < 50 |  |  | < 50 | 10 to 50 |  | < 10 |
